# Residues, ends and D or L forms follow the SMILES beside them.
# Biological target: Plasminogen (Homo sapiens, UniProt P00747)
# Test: Inhibition of human plasmin using Ac-RM(O2)YR-pNA as substrate after 30 mins
# Chain of Plasminogen (P00747 97-580 limits assumed): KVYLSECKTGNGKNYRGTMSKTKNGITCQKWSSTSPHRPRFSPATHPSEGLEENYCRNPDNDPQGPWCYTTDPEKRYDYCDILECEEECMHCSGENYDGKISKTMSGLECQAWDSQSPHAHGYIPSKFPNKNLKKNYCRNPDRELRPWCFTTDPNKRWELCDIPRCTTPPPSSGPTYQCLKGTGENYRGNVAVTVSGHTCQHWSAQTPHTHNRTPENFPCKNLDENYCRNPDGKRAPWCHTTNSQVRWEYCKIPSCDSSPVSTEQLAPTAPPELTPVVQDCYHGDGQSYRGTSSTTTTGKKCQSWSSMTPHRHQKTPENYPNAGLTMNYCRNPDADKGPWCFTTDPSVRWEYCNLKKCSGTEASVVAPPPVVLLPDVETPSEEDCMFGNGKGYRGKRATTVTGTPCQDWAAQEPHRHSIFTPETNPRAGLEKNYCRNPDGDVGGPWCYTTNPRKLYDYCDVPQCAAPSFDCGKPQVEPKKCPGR
# Chain of Plasminogen (P00747 581-810 limits assumed): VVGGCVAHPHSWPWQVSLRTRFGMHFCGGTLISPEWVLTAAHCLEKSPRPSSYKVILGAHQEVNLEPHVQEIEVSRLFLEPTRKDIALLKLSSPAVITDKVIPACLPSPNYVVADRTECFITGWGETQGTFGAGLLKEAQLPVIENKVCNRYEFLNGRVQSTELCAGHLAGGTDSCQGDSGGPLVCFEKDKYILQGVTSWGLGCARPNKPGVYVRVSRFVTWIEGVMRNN
row,Structure (SMILES),Ki
1,"CC[C@H](C)[C@@H]1NC(=O)[C@@H]2CCCN2C(=O)[C@@H]2CCCN2C(=O)[C@H](CCCCN)NC(=O)[C@H](CO)NC(=O)[C@H](CCCCN)NC(=O)[C@H](Cc2ccccc2)NC(=O)[C@@H]2CSSC[C@H](NC1=O)C(=O)N[C@@H](Cc1ccccc1)C(=O)N1CCC[C@H]1C(=O)N[C@@H](CC(=O)O)C(=O)NCC(=O)N[C@@H](CCCNC(=N)N)C(=O)N2 (HELM PEPTIDE1{C.F.K.S.K.P.P.I.C.F.P.D.G.R}$PEPTIDE1,PEPTIDE1,1:R3-9:R3|PEPTIDE1,PEPTIDE1,1:R1-14:R2$$$V2.0)",0.61 nM
2,"CC[C@H](C)[C@@H]1NC(=O)[C@@H]2CCCN2C(=O)[C@@H]2CCCN2C(=O)[C@H](CCCCN)NC(=O)[C@H](CO)NC(=O)[C@H](CCCCN)NC(=O)[C@H](Cc2c[nH]c3ccccc23)NC(=O)[C@@H]2CSSC[C@H](NC1=O)C(=O)N[C@@H](Cc1ccccc1)C(=O)N1CCC[C@H]1C(=O)N[C@@H](CC(=O)O)C(=O)NCC(=O)N[C@@H](CCCNC(=N)N)C(=O)N2 (HELM PEPTIDE1{C.F.P.D.G.R.C.W.K.S.K.P.P.I}$PEPTIDE1,PEPTIDE1,1:R3-7:R3|PEPTIDE1,PEPTIDE1,1:R1-14:R2$$$V2.0)",0.66 nM
3,"N=C(N)NCCC[C@@H]1NC(=O)CNC(=O)[C@H](CC(=O)O)NC(=O)[C@@H]2CCCN2C(=O)[C@H](Cc2ccccc2)NC(=O)[C@@H]2CSSC[C@H](NC1=O)C(=O)N[C@@H](Cc1ccc(O)cc1)C(=O)N[C@@H](CCCCN)C(=O)N[C@@H](CO)C(=O)N[C@@H](CCCCN)C(=O)N1CCC[C@H]1C(=O)N1CCC[C@H]1C(=O)N[C@@H](CCCCN)C(=O)N2 (HELM PEPTIDE1{C.F.P.D.G.R.C.Y.K.S.K.P.P.K}$PEPTIDE1,PEPTIDE1,1:R3-7:R3|PEPTIDE1,PEPTIDE1,1:R1-14:R2$$$V2.0)",2.5 nM
4,"N=C(N)NCCC[C@@H]1NC(=O)CNC(=O)[C@H](CC(=O)O)NC(=O)[C@@H]2CCCN2C(=O)[C@H](Cc2ccccc2)NC(=O)[C@@H]2CSSC[C@H](NC1=O)C(=O)N[C@@H](Cc1ccc(O)cc1)C(=O)N[C@@H](CCCCN)C(=O)N[C@@H](CO)C(=O)N[C@@H](CCCCN)C(=O)N1CCC[C@H]1C(=O)N1CCC[C@H]1C(=O)N[C@@H](CC(N)=O)C(=O)N2 (HELM PEPTIDE1{C.F.P.D.G.R.C.Y.K.S.K.P.P.N}$PEPTIDE1,PEPTIDE1,1:R3-7:R3|PEPTIDE1,PEPTIDE1,1:R1-14:R2$$$V2.0)",0.66 nM
5,"N=C(N)NCCC[C@@H]1NC(=O)CNC(=O)[C@H](CC(=O)O)NC(=O)[C@@H]2CCCN2C(=O)[C@H](Cc2ccccc2)NC(=O)[C@@H]2CSSC[C@H](NC1=O)C(=O)N[C@@H](Cc1ccc(O)cc1)C(=O)N[C@@H](CCCCN)C(=O)N[C@@H](CO)C(=O)N[C@@H](CCCCN)C(=O)N1CCC[C@H]1C(=O)N1CCC[C@H]1C(=O)N[C@@H](CCC(N)=O)C(=O)N2 (HELM PEPTIDE1{C.F.P.D.G.R.C.Y.K.S.K.P.P.Q}$PEPTIDE1,PEPTIDE1,1:R3-7:R3|PEPTIDE1,PEPTIDE1,1:R1-14:R2$$$V2.0)",1.8 nM
6,"N=C(N)NCCC[C@@H]1NC(=O)CNC(=O)[C@H](CC(=O)O)NC(=O)[C@@H]2CCCN2C(=O)[C@H](Cc2ccccc2)NC(=O)[C@@H]2CSSC[C@H](NC1=O)C(=O)N[C@@H](Cc1ccc(O)cc1)C(=O)N[C@@H](CCCCN)C(=O)N[C@@H](CO)C(=O)N[C@@H](CCCCN)C(=O)N1CCC[C@H]1C(=O)N1CCC[C@H]1C(=O)N[C@@H](CCCNC(=N)N)C(=O)N2 (HELM PEPTIDE1{C.F.P.D.G.R.C.Y.K.S.K.P.P.R}$PEPTIDE1,PEPTIDE1,1:R3-7:R3|PEPTIDE1,PEPTIDE1,1:R1-14:R2$$$V2.0)",4.7 nM
7,"CC[C@H](C)[C@@H]1NC(=O)[C@@H]2CCCN2C(=O)[C@@H]2CCCN2C(=O)[C@H](CCCNC(=N)N)NC(=O)[C@H](CO)NC(=O)[C@H](CCCCN)NC(=O)[C@H](Cc2ccc(O)cc2)NC(=O)[C@@H]2CSSC[C@H](NC1=O)C(=O)N[C@@H](Cc1ccccc1)C(=O)N1CCC[C@H]1C(=O)N[C@@H](CCC(=O)O)C(=O)NCC(=O)NC(CCCCNC(=N)N)C(=O)N2 (some centres not stated) (HELM PEPTIDE1{C.F.P.E.G.[N=C(N)NCCCCC(N[*:1])C(=O)[*:2]].C.Y.K.S.R.P.P.I}$PEPTIDE1,PEPTIDE1,1:R3-7:R3|PEPTIDE1,PEPTIDE1,1:R1-14:R2$$$V2.0)",1.1 nM
8,"CC[C@H](C)[C@@H]1NC(=O)[C@@H]2CCCN2C(=O)[C@@H]2CCCN2C(=O)[C@H](CCCNC(=N)N)NC(=O)[C@H](CO)NC(=O)[C@H](CCCCN)NC(=O)[C@H](Cc2ccc(O)cc2)NC(=O)[C@@H]2CSSC[C@H](NC1=O)C(=O)N[C@@H](Cc1ccccc1)C(=O)N1CCC[C@H]1C(=O)N[C@@H](CC(N)=O)C(=O)NCC(=O)N[C@@H](CCCNC(=N)N)C(=O)N2 (HELM PEPTIDE1{C.F.P.N.G.R.C.Y.K.S.R.P.P.I}$PEPTIDE1,PEPTIDE1,1:R3-7:R3|PEPTIDE1,PEPTIDE1,1:R1-14:R2$$$V2.0)",1.2 nM

# More lines, now with the values ahead:
row,Ki,Structure (SMILES)
1,2 nM,"CC[C@H](C)[C@@H]1NC(=O)[C@@H]2CCCN2C(=O)[C@@H]2CCCN2C(=O)[C@H](CCCNC(=N)N)NC(=O)[C@H](CO)NC(=O)[C@H](CCCCN)NC(=O)[C@H]([C@@H](C)O)NC(=O)[C@@H]2CSSC[C@H](NC1=O)C(=O)N[C@@H](Cc1ccccc1)C(=O)N1CCC[C@H]1C(=O)N[C@@H](CC(=O)O)C(=O)NCC(=O)N[C@@H](CCCNC(=N)N)C(=O)N2 (HELM PEPTIDE1{C.F.P.D.G.R.C.T.K.S.R.P.P.I}$PEPTIDE1,PEPTIDE1,1:R3-7:R3|PEPTIDE1,PEPTIDE1,1:R1-14:R2$$$V2.0)"
2,120 nM,"CC[C@H](C)[C@@H]1NC(=O)[C@@H]2CCCN2C(=O)[C@@H]2CCCN2C(=O)[C@H]([C@@H](C)CC)NC(=O)[C@H](CO)NC(=O)[C@H](CCCNC(=N)N)NC(=O)[C@H]([C@@H](C)O)NC(=O)[C@@H]2CSSC[C@H](NC1=O)C(=O)N[C@@H](Cc1ccccc1)C(=O)N1CCC[C@H]1C(=O)N[C@@H](CC(=O)O)C(=O)NCC(=O)N[C@@H](CCCNC(=N)N)C(=O)N2 (HELM PEPTIDE1{C.F.P.D.G.R.C.T.R.S.I.P.P.I}$PEPTIDE1,PEPTIDE1,1:R3-7:R3|PEPTIDE1,PEPTIDE1,1:R1-14:R2$$$V2.0)"
3,8.3 nM,"CC[C@H](C)[C@@H]1NC(=O)[C@@H]2CCCN2C(=O)[C@@H]2CCCN2C(=O)[C@H](CCCCN)NC(=O)[C@H](CO)NC(=O)[C@H](CCCNC(=N)N)NC(=O)[C@H](Cc2ccc(O)cc2)NC(=O)[C@@H]2CSSC[C@H](NC1=O)C(=O)N[C@@H](Cc1ccccc1)C(=O)N1CCC[C@H]1C(=O)N[C@@H](CC(=O)O)C(=O)NCC(=O)N[C@@H](CCCNC(=N)N)C(=O)N2 (HELM PEPTIDE1{C.F.P.D.G.R.C.Y.R.S.K.P.P.I}$PEPTIDE1,PEPTIDE1,1:R3-7:R3|PEPTIDE1,PEPTIDE1,1:R1-14:R2$$$V2.0)"
4,16 nM,"CC[C@H](C)[C@@H]1NC(=O)[C@@H]2CCCN2C(=O)[C@@H]2CCCN2C(=O)[C@H](CCCNC(=N)N)NC(=O)[C@H](CO)NC(=O)[C@H](CCCNC(=N)N)NC(=O)[C@H](Cc2ccc(O)cc2)NC(=O)[C@@H]2CSSC[C@H](NC1=O)C(=O)N[C@@H](Cc1ccccc1)C(=O)N1CCC[C@H]1C(=O)N[C@@H](CC(=O)O)C(=O)NCC(=O)N[C@@H](CCCNC(=N)N)C(=O)N2 (HELM PEPTIDE1{C.F.P.D.G.R.C.Y.R.S.R.P.P.I}$PEPTIDE1,PEPTIDE1,1:R3-7:R3|PEPTIDE1,PEPTIDE1,1:R1-14:R2$$$V2.0)"

# — ChEMBL document CHEMBL4371033, “Highly Potent and Selective Plasmin Inhibitors Based on the Sunflower Trypsin Inhibitor-1 Scaffold Attenuate Fibrinolysis in Plasma” (J Med Chem, 2019)
